Where “and” joins values, the source holds several entries; their conditions need not be identical. Identical values can stand only once. Inconclusive results and toxic doses are left out. Where a SMILES comes first, the peptide text is derived from it. [ ]: non-standard residue; d: D form. The star is where a group is joined. Cbz = O=C(OCc1ccccc1)*; Nva = CCC[CH](N)C(=O)O
System: B6C3F1 mice, B16 melanoma ip, median survival T/C
Assay: NCI In Vivo Anticancer Drug Screen. Data for tumor model B16 Melanoma (intraperitoneal) in B6C3F1 mice
Conditions: endpoint: median survival time, schedule: Q01DX009 (ip), higher = longer survival
Summary of the method: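 Mice bearing transplanted tumor were dosed with compound or vehicle, and survival was recorded. Activity is expressed as the treated-group measurement (T) divided by the vehicle control measurement (C).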

[1] = dose: 6.25 mg/kg/injection, vehicle: saline with Tween-80
[2] = dose: 12.5 mg/kg/injection, vehicle: saline with Tween-80
[3] = dose: 12.5 mg/kg/injection, vehicle: Klucel (hydroxypropylcellulose) (HPC)
[4] = dose: 25.0 mg/kg/injection, vehicle: Klucel (hydroxypropylcellulose) (HPC)
[5] = dose: 50.0 mg/kg/injection, vehicle: Klucel (hydroxypropylcellulose) (HPC)
[6] = dose: 100.0 mg/kg/injection, vehicle: Klucel (hydroxypropylcellulose) (HPC)
[7] = dose: 200.0 mg/kg/injection, vehicle: Klucel (hydroxypropylcellulose) (HPC)
[8] = dose: 400.0 mg/kg/injection, vehicle: Klucel (hydroxypropylcellulose) (HPC)
[9] = dose: 6.25 mg/kg/injection, vehicle: Klucel (hydroxypropylcellulose) (HPC)
[10] = dose: 6.25 mg/kg/injection, vehicle: saline
[11] = dose: 12.5 mg/kg/injection, vehicle: saline
[12] = dose: 25.0 mg/kg/injection, vehicle: saline with Tween-80
[13] = dose: 25.0 mg/kg/injection, vehicle: saline
[14] = dose: 50.0 mg/kg/injection, vehicle: saline with Tween-80
[15] = dose: 50.0 mg/kg/injection, vehicle: saline
[16] = dose: 100.0 mg/kg/injection, vehicle: saline with Tween-80
[17] = dose: 100.0 mg/kg/injection, vehicle: saline
[18] = dose: 200.0 mg/kg/injection, vehicle: saline with Tween-80
[19] = dose: 200.0 mg/kg/injection, vehicle: saline

## COc1cc([C@@H]2c3cc4c(cc3[C@H](O)[C@H]3COC(=O)[C@H]23)OCO4)cc(OC)c1OC
dose: 0.36 mg/kg/injection, vehicle: Klucel (hydroxypropylcellulose) (HPC)
  T/C: 116 % of control
dose: 0.6 mg/kg/injection, vehicle: Klucel (hydroxypropylcellulose) (HPC)
  T/C: 102 % of control
dose: 1.0 mg/kg/injection, vehicle: Klucel (hydroxypropylcellulose) (HPC)
  T/C: 107 % of control
dose: 1.67 mg/kg/injection, vehicle: Klucel (hydroxypropylcellulose) (HPC)
  T/C: 103 % of control
dose: 2.0 mg/kg/injection, vehicle: Klucel (hydroxypropylcellulose) (HPC)
  T/C: 123 % of control
dose: 2.78 mg/kg/injection, vehicle: Klucel (hydroxypropylcellulose) (HPC)
  T/C: 114 % of control
dose: 4.0 mg/kg/injection, vehicle: Klucel (hydroxypropylcellulose) (HPC)
  T/C: 114 % of control

## C=C1N(C)c2ccccc2C1(C)C
[1]
  T/C: 110 % of control
[2]
  T/C: 108 % of control

## F[B-](F)(F)F
dose: 12.5 mg/kg/injection, vehicle: gum acacia
  T/C: 99 % of control
dose: 25.0 mg/kg/injection, vehicle: gum acacia
  T/C: 118 % of control
dose: 50.0 mg/kg/injection, vehicle: gum acacia
  T/C: 100 % of control and 106 % of control
dose: 100.0 mg/kg/injection, vehicle: gum acacia
  T/C: 98 % of control and 106 % of control
dose: 200.0 mg/kg/injection, vehicle: gum acacia
  T/C: 108 % of control and 112 % of control
dose: 400.0 mg/kg/injection, vehicle: gum acacia
  T/C: 93 % of control and 99 % of control

## C[Si](C)(C)OSc1ccccc1[N+](=O)[O-]
[3]
  T/C: 108 % of control
[4]
  T/C: 110 % of control
[5]
  T/C: 113 % of control
[6]
  T/C: 112 % of control
[7]
  T/C: 103 % of control
[8]
  T/C: 89 % of control

## O=S1(=O)CS(=O)(=O)OCCO1
[9]
  T/C: 111 % of control
[3]
  T/C: 153 % of control and 161 % of control
[5]
  T/C: 117 % of control

## CCC1CC2CN(CCc3c([nH]c4ccccc34)C(C(=O)OC)(c3cc4c(cc3OC)N(C)C3C(O)(C(=O)OC)C(OC(C)=O)C5(CC)C=CCN6CCC43C65)C2)C1 (stereo unspecified)
dose: 0.06 mg/kg/injection, vehicle: saline
  T/C: 111 % of control
dose: 0.06 mg/kg/injection, vehicle: suspension in saline
  T/C: 116 % of control
dose: 0.12 mg/kg/injection, vehicle: suspension in saline
  T/C: 114 % of control
dose: 0.13 mg/kg/injection, vehicle: saline
  T/C: 110 % of control
dose: 0.5 mg/kg/injection, vehicle: saline
  T/C: 175 % of control
dose: 1.0 mg/kg/injection, vehicle: saline
  T/C: 208 % of control
dose: 2.0 mg/kg/injection, vehicle: saline
  T/C: 248 % of control
dose: 2.0 mg/kg/injection, vehicle: suspension in saline
  T/C: 226 % of control

## CC(C)CC(NC=O)C(=O)O (stereo unspecified)
[4]
  T/C: 103 % of control
[5]
  T/C: 103 % of control
[6]
  T/C: 92 % of control and 100 % of control

## CC1(C)COCN1COC1CCCCC1
[10]
  T/C: 99 % of control
[11]
  T/C: 114 % of control
[12]
  T/C: 102 % of control
[13]
  T/C: 99 % of control
[14]
  T/C: 112 % of control
[15]
  T/C: 114 % of control
[16]
  T/C: 115 % of control
[17]
  T/C: 106 % of control

## CNC(=O)Oc1ccc[nH]c1=O
dose: 16.0 mg/kg/injection, vehicle: saline with Tween-80
  T/C: 101 % of control
dose: 32.0 mg/kg/injection, vehicle: saline with Tween-80
  T/C: 100 % of control
dose: 64.0 mg/kg/injection, vehicle: saline with Tween-80
  T/C: 101 % of control
dose: 128.0 mg/kg/injection, vehicle: saline with Tween-80
  T/C: 100 % of control
dose: 256.0 mg/kg/injection, vehicle: saline with Tween-80
  T/C: 95 % of control

## CN(C)C1C(=O)C(C(=O)NP(=O)(NCCCO)N(CCCl)CCCl)=C(O)C2(O)C(=O)C3=C(O)c4c(O)cccc4C(C)(O)C3CC12 (stereo unspecified)
dose: 12.0 mg/kg/injection, vehicle: saline with Tween-80
  T/C: 105 % of control
[12]
  T/C: 103 % of control and 107 % of control
[14]
  T/C: 118 % of control and 102 % of control
[16]
  T/C: 121 % of control
[18]
  T/C: 195 % of control and 219 % of control

## CC[C@@H](C)[C@H]([C@H](CC(=O)N1CCC[C@@H]1[C@@H](OC)[C@H](C)C(=O)N[C@H](Cc1ccccc1)c1nccs1)OC)N(C)C(=O)[C@H](NC(=O)[C@@H](C(C)C)N(C)C)C(C)C
dose: 2.4 micrograms/kg/injection, vehicle: saline + alcohol
  T/C: 171 % of control
dose: 4.0 micrograms/kg/injection, vehicle: saline + alcohol
  T/C: 205 % of control
dose: 6.67 micrograms/kg/injection, vehicle: saline + alcohol
  T/C: 182 % of control
dose: 11.11 micrograms/kg/injection, vehicle: saline + alcohol
  T/C: 238 % of control

## O=S(=O)(c1ccccc1)N1CN2CCN(C2)C1
[2]
  T/C: 96 % of control
[12]
  T/C: 94 % of control
[14]
  T/C: 108 % of control
[16]
  T/C: 112 % of control
[18]
  T/C: 119 % of control
dose: 400.0 mg/kg/injection, vehicle: saline with Tween-80
  T/C: 122 % of control

## CCCC(NC(=O)OCc1ccccc1)C(=O)NC(C(=O)O)C(C)C (stereo unspecified) (Cbz-[Nva]-Val-OH; configuration not given here)
[6]
  T/C: 102 % of control
[7]
  T/C: 109 % of control
[8]
  T/C: 99 % of control

## CC1C=NNC1=O (stereo unspecified)
[3]
  T/C: 100 % of control
[4]
  T/C: 102 % of control
[5]
  T/C: 117 % of control
[6]
  T/C: 92 % of control
[7]
  T/C: 95 % of control
[8]
  T/C: 95 % of control

## O=C(C#Cc1ccccc1)c1ccccc1
dose: 3.12 mg/kg/injection, vehicle: Klucel (hydroxypropylcellulose) (HPC)
  T/C: 100 % of control and 102 % of control
[9]
  T/C: 92 % of control and 102 % of control
[3]
  T/C: 97 % of control and 101 % of control
[4]
  T/C: 90 % of control and 94 % of control

## Nc1ncn(C2OC(CO)C(O)C2O)c(=O)n1 (stereo unspecified)
dose: 0.37 mg/kg/injection, vehicle: saline
  T/C: 106 % of control
dose: 0.75 mg/kg/injection, vehicle: saline
  T/C: 111 % of control
dose: 1.5 mg/kg/injection, vehicle: saline
  T/C: 112 % of control
dose: 6.0 mg/kg/injection, vehicle: saline
  T/C: 114 % of control
[10]
  T/C: 105 % of control
dose: 12.0 mg/kg/injection, vehicle: saline
  T/C: 112 % of control
[11]
  T/C: 112 % of control
[13]
  T/C: 117 % of control and 119 % of control
[15]
  T/C: 116 % of control and 117 % of control (2×)
[19]
  T/C: 153 % of control

## CC(C)=CCN1C(=O)c2ccccc2C1=O
[17]
  T/C: 104 % of control
[19]
  T/C: 102 % of control
dose: 400.0 mg/kg/injection, vehicle: saline
  T/C: 94 % of control

## O=C(Nc1ccc(C2=NCCN2)cc1)c1ccc(C(=O)Nc2ccc(C3=NCCN3)cc2)c(Cl)c1
dose: 1.56 mg/kg/injection, vehicle: saline with Tween-80
  T/C: 105 % of control
dose: 1.56 mg/kg/injection, vehicle: saline
  T/C: 115 % of control
dose: 3.12 mg/kg/injection, vehicle: saline with Tween-80
  T/C: 98 % of control
dose: 3.12 mg/kg/injection, vehicle: saline
  T/C: 89 % of control
[1]
  T/C: 100 % of control
[10]
  T/C: 100 % of control
[2]
  T/C: 93 % of control
[11]
  T/C: 93 % of control
[12]
  T/C: 110 % of control
[13]
  T/C: 94 % of control
[14]
  T/C: 110 % of control
[15]
  T/C: 99 % of control

Reference: PubChem BioAssay AID200 (DTP/NCI, 2004)
